Consider three molecules from patent publication US6436890B1, “Antimicrobial detergent composition” (Inui Corporation, priority 1999, dated 2002).

Holding throughout (type): cell-based
Experiment [1] deals with Staphylococcus aureus JCI (MRSA). The experiment in a line: Antimicrobial power against MRSA, MIC by Nutrient Broth liquid medium dilution method. To be noted: for MIC: Staphylococcus aureus JCI (MRSA); for Antimicrobial activity against MRSA (in words): at a low concentration. As to the method:
Antimicrobial power against MRSA (Methicillin-resistant Staphylococcus aureus) of N,N′-hexamethylenebis (4-carbamoyl-1-decylpyridinium bromide) (“Dimer 38” manufactured by INUI CORPORATION) and 4,4′-(tetramethylenecarbonyldiamino)bis(1-decyl-pyridinium bromide) (“Dimer 136” manufactured by INUI CORPORATION). L-broth (5 ml) was inoculated with Staphylococcus aureus JC1 and, after incubation at 37° C. for 18 hours, the MIC (minimum inhibitory concentration) of Dimer 38 and Dimer 136 was measured according to the Nutrient Broth liquid medium dilution method.

The test system of experiment [2] is Bacillus subtilis ATCC 6633. On the procedure:
(§1) L-broth (5 ml) was inoculated with each bacteria and, after incubation at 37° C. for 18 hours, the MIC (minimum inhibitory concentration) was measured according to the Nutrient Broth liquid medium dilution method.

The subject of experiment [3] is Escherichia coli K12W3110. On the procedure:
as §1

The subject of experiment [4] is Pseudomonas aeruginosa ATCC 10145. As to the method: as §1
Experiment [5] concerns Staphylococcus aureus IFO 12732. As to the method: as §1

Like-named read-outs stand apart in the source and are kept apart here.

On to “4,4′-(tetramethylenedicarbonyldiamino)bis(1-decylpyridinium bromide) [Dimer 136]”, for which, in experiment [1], the MIC is reported as 0.6 ppm and the “Antimicrobial activity against MRSA (in words)” value is “demonstrate an antimicrobial activity against MRSA”.

`CCCCCCCCCC[n+]1ccc(C(=O)NCCCCCCNC(=O)c2cc[n+](CCCCCCCCCC)cc2)cc1.[Br-].[Br-]` [Dimer 38, N,N′-Hexamethylenebis(4-carbamoyl-1-decylpyridinium bromide)]: in experiment [1], the MIC was 0.2 ppm and the “Antimicrobial activity against MRSA (in words)” value is reported as “demonstrate an antimicrobial activity against MRSA”.

Regarding `CC(=O)[O-].CC(=O)[O-].CCCCCCCCCC[n+]1ccc(C(=O)NCCCCCCNC(=O)c2cc[n+](CCCCCCCCCC)cc2)cc1` [Dimer 38A, N,N′-hexamethylenebis(4-carbamoyl-1-decylpyridinium acetate)], the MIC in experiment [2] (procedure 1 of 7, B. subtilis ATCC 6633) is listed as 0.8 ppm; in experiment [2] (procedure 2 of 7, B. subtilis ATCC 6633), 0.2 ppm; in experiment [2] (procedure 3 of 7, B. subtilis ATCC 6633), 0.4 ppm; in experiment [2] (procedure 4 of 7, B. subtilis ATCC 6633) it was 0.2 ppm; in experiment [2] (procedure 5 of 7, B. subtilis ATCC 6633), 0.4 ppm; in experiment [2] (procedure 6 of 7, B. subtilis ATCC 6633), 0.4 ppm. Besides, the MIC in experiment [2] (procedure 7 of 7, B. subtilis ATCC 6633) was 0.4 ppm; in experiment [3] (procedure 1 of 7, E. coli K12W3110), 1.6 ppm; in experiment [3] (procedure 2 of 7, E. coli K12W3110), 0.8 ppm; in experiment [3] (procedure 3 of 7, E. coli K12W3110), 0.8 ppm; in experiment [3] (procedure 4 of 7, E. coli K12W3110), 0.8 ppm; in experiment [3] (procedure 5 of 7, E. coli K12W3110), 1.6 ppm. Also, the MIC stood at 1.6 ppm in experiment [3] (procedure 6 of 7, E. coli K12W3110); 1.6 ppm in experiment [3] (procedure 7 of 7, E. coli K12W3110); 3.1 ppm in experiment [4] (procedure 1 of 7, P. aeruginosa ATCC 10145); 3.1 ppm in experiment [4] (procedure 2 of 7, P. aeruginosa ATCC 10145); 6.3 ppm in experiment [4] (procedure 3 of 7, P. aeruginosa ATCC 10145); 6.3 ppm in experiment [4] (procedure 4 of 7, P. aeruginosa ATCC 10145). Also, the MIC was found to be 6.3 ppm in experiment [4] (procedure 5 of 7, P. aeruginosa ATCC 10145); 6.3 ppm in experiment [4] (procedure 6 of 7, P. aeruginosa ATCC 10145); 3.1 ppm in experiment [4] (procedure 7 of 7, P. aeruginosa ATCC 10145); 0.1 ppm in experiment [5] (procedure 1 of 7, S. aureus IFO 12732); 0.01 ppm in experiment [5] (procedure 2 of 7, S. aureus IFO 12732); 0.05 ppm in experiment [5] (procedure 3 of 7, S. aureus IFO 12732). In addition, the MIC was determined as 0.01 ppm in experiment [5] (procedure 4 of 7, S. aureus IFO 12732); 0.1 ppm in experiment [5] (procedure 5 of 7, S. aureus IFO 12732); 0.1 ppm in experiment [5] (procedure 6 of 7, S. aureus IFO 12732); 0.05 ppm in experiment [5] (procedure 7 of 7, S. aureus IFO 12732).
